Measured values published in patent US9193898B2, “Environmentally friendly dispersion system used in the preparation of inverse emulsion polymers” (priority 2011, dated 2015).

Legend:
[1] = tested on: most sensitive marine species (typically Skeletonema); assay: Toxicity to the most sensitive marine species (EC50); settings: environmental profile of dispersion system components
Source text: (§1) With this in mind, it was desired to create an environmentally friendly oil phase system useful for making inverse emulsion polymers. The adopted definition of environmentally friendly are the rules that govern offshore chemical use in the North Sea. The environmental impact of a chemical is defined by three tests: bioaccumulation, biodegradation and toxicity. In order for a chemical to be used without restriction offshore in the North Sea it must satisfy two of the following three criteria: • 1. Biodegradation must be greater than 60%, if less than 20% it is automatically marked for substitution. • 2. Bioaccumulation as measured by octanol/water partitioning coefficient (log Po/w) must be below 3 (or have a molecular weight>700). • 3. Toxicity to the most sensitive marine species (typically Skeletonema) must be greater than LC50 or EC50 of 10 ppm.

[2] = Source text: as §1, with “ppm. […]” for “ppm.”
An embodiment of the present invention is an environmentally friendly oil phase system comprising an organic solvent and lecithin. The immiscible organic solvent can be a hydrocarbon solvent that is aliphatic or at least one oil derived from one or more natural products, and are at least 60% biodegradable after 28 days as determined by the Organization for Economic Cooperation and Development, Procedure OECD 306, its text incorporated by reference. […]

[3] = Bioaccumulation as octanol/water partitioning coefficient (log Po/w); assay type: physicochemical
Source text: as §1

[4] = cited from earlier work

Substance | Toxicity EC50 [1] [ppm] | Biodegradation, t = 28 days [2] | Bioaccumulation log Po/w [3] | log P [4]
POE(4)-sorbitan monostearate | 165 | 27 | <3 | 
POE(5)-sorbitan monooleate | 20 | 52 | <3 | 
sorbitan monooleate |  |  |  | > 3
